From ChEMBL document CHEMBL1201862, “PubChem BioAssay data set” (2004)
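Protocol summary: plate cells (96-well), add compound at 5 concentrations, incubate 48 h, interpolate endpoints linearly. GI50 is the concentration that inhibits growth by half.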 Activity calls are given as the source filed them. No stated cut-off is given here; in the data, active = GI50 up to about 1.1 µM and inactive = higher.

Assays:
Experiment in all cases: NCI anticancer screen, dose series, 48 h
[1] = tested on: NCI-H226
[2] = tested on: SNB-19
[3] = tested on: SF-295
[4] = tested on: OVCAR-8
[5] = tested on: OVCAR-3
[6] = tested on: MDA-N
[7] = tested on: A549
[8] = tested on: SK-MEL-5
[9] = tested on: K562
[10] = tested on: RXF 393
[11] = tested on: ACHN
[12] = tested on: T47D
[13] = tested on: LOX IMVI
[14] = tested on: U-251
[15] = tested on: CAKI-1
[16] = tested on: COLO 205
[17] = tested on: Hs-578T
[18] = tested on: SK-MEL-2
[19] = tested on: UACC-257
[20] = tested on: SK-MEL-28
[21] = tested on: HOP-62
[22] = tested on: BT-549
[23] = tested on: 786-0
[24] = tested on: NCI-H460
[25] = tested on: NCI/ADR-RES
[26] = tested on: HCC 2998
[27] = tested on: MCF7
[28] = tested on: HCT-15
[29] = tested on: DU-145
[30] = tested on: HOP-92
[31] = tested on: SNB-75
[32] = tested on: HL-60
[33] = tested on: KM12
[34] = tested on: SN12C
[35] = tested on: PC-3
[36] = tested on: A498
[37] = tested on: MDA-MB-435
[38] = tested on: HT-29
[39] = tested on: SF-539
[40] = tested on: UO-31
[41] = tested on: OVCAR-4
[42] = tested on: IGROV-1
[43] = tested on: RPMI-8226
[44] = tested on: SK-OV-3
[45] = tested on: Malme-3M
[46] = tested on: NCI-H522
[47] = tested on: TK-10
[48] = tested on: OVCAR-5
[49] = tested on: HCT-116
[50] = tested on: MDA-MB-231
[51] = tested on: EKVX
[52] = tested on: NCI-H23
[53] = tested on: UACC-62
[54] = tested on: CCRF-CEM
[55] = tested on: MOLT-4
[56] = tested on: SF-268
[57] = tested on: SW-620
[58] = tested on: M14
[59] = tested on: SR

For `[N-]=[N+]=Nc1c([N+](=O)[O-])c(Cl)nc2ccccc12`, the GI50 [1] was 10600 nM (inactive), the GI50 [2] was 14400 nM (inactive) and the GI50 [3] was 19400 nM (inactive). For the same compound, the GI50 [4] was 1870 nM (inactive), the GI50 [5] was 1410 nM (inactive) and the GI50 [6] was 2380 nM (inactive). For the same compound, the GI50 [7] was 16800 nM (inactive), the GI50 [8] was 8990 nM (inactive) and the GI50 [9] was 463 nM (active). For the same compound, the GI50 [10] was 1860 nM (inactive), the GI50 [11] was 1760 nM (inactive) and the GI50 [12] was 2070 nM (inactive). For the same compound, the GI50 [13] was 1590 nM (inactive), the GI50 [14] was 5960 nM (inactive) and the GI50 [15] was 971 nM (active). The GI50 [16] was 1740 nM (inactive), the GI50 [17] was 3120 nM (inactive) and the GI50 [18] was 1400 nM (inactive). The GI50 [19] was 1690 nM (inactive), the GI50 [20] was 2480 nM (inactive) and the GI50 [21] was 19800 nM (inactive). The GI50 [22] was 1740 nM (inactive), the GI50 [23] was 541 nM (active) and the GI50 [24] was 10800 nM (inactive). The GI50 [25] was 2560 nM (inactive), the GI50 [26] was 1980 nM (inactive) and the GI50 [27] was 1540 nM (inactive). The GI50 [28] was 1830 nM, the GI50 [29] was 2130 nM (inactive) and the GI50 [30] was 1950 nM (inactive). For the same compound, the GI50 [31] was 8930 nM (inactive), the GI50 [32] was 119 nM (active) and the GI50 [33] was 7160 nM (inactive). The GI50 [34] was 2230 nM (inactive), the GI50 [35] was 1910 nM (inactive) and the GI50 [36] was 13700 nM (inactive). For the same compound, the GI50 [37] was 2380 nM (inactive), the GI50 [38] was 2180 nM (inactive) and the GI50 [39] was 3920 nM (inactive). For the same compound, the GI50 [40] was 632 nM (active), the GI50 [41] was 1900 nM (inactive) and the GI50 [42] was 2090 nM (inactive). For the same compound, the GI50 [43] was 1770 nM (inactive), the GI50 [44] was 14500 nM (inactive) and the GI50 [45] was 1690 nM (inactive). The GI50 [46] was 293 nM (active), the GI50 [47] was 2250 nM (inactive) and the GI50 [48] was 2440 nM (inactive). The GI50 [49] was 1630 nM (inactive), the GI50 [50] was 1850 nM (inactive) and the GI50 [51] was 3010 nM (inactive). For the same compound, the GI50 [52] was 2600 nM (inactive), the GI50 [53] was 4370 nM (inactive) and the GI50 [54] was 376 nM (active). For the same compound, the GI50 [55] was 587 nM (active), the GI50 [56] was 3470 nM (inactive) and the GI50 [57] was 480 nM (active). For the same compound, the GI50 [58] was 1440 nM (inactive) and the GI50 [59] was 604 nM (active).
